In US20250186439A1, “PYK2 INHIBITION MODULATES IMMUNE CELL FUNCTION” (The Children's Medical Center Corporation, priority 2022, published 2025):
“Also recorded” adds a separate entry of the source.

Tests used:
microglia = test: β-amyloid (Aβ42) brain infusion assay, microglia response in vivo; design: species or system mouse; conditions: intracerebroventricular infusion before Aβ42 infusion
From the text: FIGS. 9A-9B. FIG. 9A. Aβ brain infusion assay system. Using osmotic pump implanted to mice, an experimental system using intracerebroventricular injection was established to validate the morphological and molecular changes of microglia in response to Aβ42 in vivo. FIG. 9B. Activated microglia in the vicinity of amyloid plaques. Pyk2 inhibitor was infused into Iba1-EGFP transgenic mouse brain for 3 days and then Hylite-555 labelled-AP42 was infused into the brain using osmotic pump for the next 3 days. A 20 μm scale bar is in the bottom-left corner.
To test the morphological and molecular changes of microglia in response to Aβ42 in vivo a β-amyloid brain infusion assay was performed. An in vivo experimental system for […] was established with brain infusion pump inserted to left cerebral ventricle and treated Pyk2 inhibitor for 24 hours before Aβ42 infusion (FIG. 9A).

MG6 cells = test: Phagocytosis of pHrodo Red E. coli BioParticles by sorted mono-/multinuclear MG6 cells (fluorescence plate reader); format: cell-based, mouse
Procedure: FIGS. 7A-7D. Pyk2 inhibition promotes the phagocytotic activity and inflammatory responses in microglia. FIG. 7A: Quantification of the effect of Pyk2 inhibitor treatment on proliferation of mononucleated and multinucleated MG6 cells. MG6 cells were pretreated with 1000 nM Pyk2 inhibitor for 24 hours and mono-/multi-nuclear cells were isolated and collected by fluorescent activated cell sorting. […] There is no difference in proliferation of mononuclear cells after Pyk2 inhibitor treatment compared to untreated control cells. FIG. 7B: Fluorescent imaging depicting the effect of Pyk2 inhibitor on phagocytosis of mononucleated and multinucleated MG6 cells. MG6 cells were pretreated with 1000 nM Pyk2 inhibitor for 24 hours and mono-/multi-nuclear cells were isolated and collected by fluorescent activated cell sorting. After sorting, cells were treated with pHrodo Red E. coli BioParticles. Representative images are shown at ×20 magnification level. FIG. 7C: Quantification of phagocytosis of mononucleated and multinucleated MG6 cells over time. After Pyk2 inhibitor treatment and cell sorting, MG6 cells were treated with pHrodo Red E. coli BioParticles for the indicated time. Fluorescence intensity was measured by fluorescence microplate reader at excitation/emission wavelengths of 560/580 nm. […] FIG. 7D: Quantification of the effect of Pyk2 inhibitor treatment on cytokine/chemokine levels of mononucleated and multinucleated MG6 cells. The relative mRNA levels of IL-6, IL-1β, IL-10, and TGF-β were measured by a real-time PCR (qPCR). Measured mRNA transcript levels are reported as the mean level±standard deviation (n=3; *: p-value<0.05; **: p-value <0.01; ***: p-value <0.005; ****: p-value <0.001; and *****: p-value <0.0005).
Next, the differences in the activity of mononucleated and multinucleated microglial cells in response to Pyk2 inhibition was further assessed. […] Mononucleated and multinucleated MG6 cells also differed regarding the cytokines and chemokines produced by each (FIG. 7D).

[1] = 4 and 5 hours after pHrodo treatment

SMILES: CN(c1ccccc1CNc1nc(Nc2ccc3c(c2)CC(=O)N3)ncc1C(F)(F)F)S(C)(=O)=O [PF-431396]
- expression of MHC class II molecules (e.g., H2-D1 and H2-K1) in microglia (microglia): increased expression
- phagocytic activity near amyloid plaques (microglia): enhanced
- proportion of activated microglia (microglia; listed as Pyk2 inhibitor): a significant proportion of microglia were activated; also recorded: significantly larger proportion
- phagocytosis of pHrodo BioParticles, sorted mononucleated cells vs control (MG6 cells; 1000 nM pretreatment): did not
- phagocytosis of pHrodo BioParticles, sorted multinucleated cells vs control (MG6 cells; 1000 nM pretreatment): increase in phagocytosis
- phagocytic activity, Pyk2-mono vs control (MG6 cells; [1]): do not show significant difference
- phagocytic activity, Pyk2-multi vs Pyk2-mono and controls (MG6 cells; [1]): higher phagocytic activity
- phagocytic activity, sorted mononuclear cells (Pyk2-mono) (MG6 cells; 3 hours after pHrodo treatment): increased fluorescence signal
- phagocytic activity, sorted multinuclear cells (Pyk2-multi) (MG6 cells; 3 hours after pHrodo treatment, listed as Pyk2 inhibitor): statistically significant increase; also recorded: increased fluorescence signal
